Literature values, collected in patent US20070042008A1, “Compositions containing phosphatidylcholine and essential fatty acids” (BodyBio, Inc., priority 2005, published 2007).

Conditions: oral

Phosphatidylcholine [PC]
blood levels peak (time to peak): 8 to 12 h | absorbed, taken orally (per 24 hrs, taken with meals): up to 90%
